# Calls of active or inactive are those of the source. The rule behind the calls is not given here.
# System: Mus musculus
# Test: (§1) Anti-hyperuricemic activity against potassium oxonate-induced male Kunming mouse model assessed as alleviation of casts formation in kidney at 10 mg/kg, po via gavage administered 1 hr post-potassium oxonate challenge and measured after 7 days on day 7 potassium oxonate injected after 12 hrs fasting and measured followed by 1.5 hrs of compound administration by H and E staining based analysis
# Assay type: functional, organism-based
# Details: time 7.0 day
row,SMILES,Activity
1,C/C(=C\Cc1cccc2c1OC(c1cccs1)CC2=O)C(=O)O (stereo unspecified),Active
2,C/C(=C\Cc1c(O)ccc2c1OC(c1cccs1)CC2=O)C(=O)O (stereo unspecified),Active

# System: Mus musculus
# Test: as §1, with “reduction” for “alleviation of casts formation”, “serum uric acid level” for “kidney”, “administration” for “administration by H and E staining based analysis”
# Assay type: functional
# Details: time 7 day
row,SMILES,Activity
1,C/C(=C\Cc1cccc2c1OC(c1cccs1)CC2=O)C(=O)O (stereo unspecified),317.1 µM
2,C/C(=C\Cc1c(O)ccc2c1OC(c1cccs1)CC2=O)C(=O)O (stereo unspecified),366.12 µM

# System: not listed separately
# Test: (§2) Renal toxicity in potassium oxonate-induced male Kunming mouse model assessed as effect on kidney damage at 10 mg/kg,po via gavage administered 1 hr post-potassium oxonate challenge and measured after 7 days on day 7 potassium oxonate injected after 12 hrs fasting and measured followed by 1.5 hrs of compound administration
# Assay type: organism-based
# Details: in vivo, 168 h, time 7 day
row,SMILES,Activity
1,C/C(=C\Cc1cccc2c1OC(c1cccs1)CC2=O)C(=O)O (stereo unspecified),Non-Toxic
2,C/C(=C\Cc1c(O)ccc2c1OC(c1cccs1)CC2=O)C(=O)O (stereo unspecified),Non-Toxic

# System: Mus musculus
# Test: as §1, with “renal tubule dilatation” for “casts formation in kidney”
# Assay type: functional, organism-based
# Details: time 7.0 day
row,SMILES,Activity
1,C/C(=C\Cc1cccc2c1OC(c1cccs1)CC2=O)C(=O)O (stereo unspecified),Active
2,C/C(=C\Cc1c(O)ccc2c1OC(c1cccs1)CC2=O)C(=O)O (stereo unspecified),Active

# System: HK-2
# Test: Cytotoxicity against human HK-2 cells assessed as cell viability at <100 uM incubated for 24 hrs by MTT assay
# Assay type: toxicity, cell-based
# Details: hk-2, 24 h
row,SMILES,Activity
1,C/C(=C\Cc1cccc2c1OC(c1cccs1)CC2=O)C(=O)O (stereo unspecified),Toxic
2,C/C(=C\Cc1c(O)ccc2c1OC(c1cccs1)CC2=O)C(=O)O (stereo unspecified),Toxic

# System: Mus musculus
# Test: as §1, with “shrinkage” for “casts formation”
# Assay type: functional, organism-based
# Details: time 7.0 day
row,SMILES,Activity
1,C/C(=C\Cc1cccc2c1OC(c1cccs1)CC2=O)C(=O)O (stereo unspecified),Active
2,C/C(=C\Cc1c(O)ccc2c1OC(c1cccs1)CC2=O)C(=O)O (stereo unspecified),Active

# System: Mus musculus
# Test: as §1, with “increase” for “alleviation of casts formation”, “urine uric acid level” for “kidney”, “(reference value: 481.6 microM)” for “by H and E staining based analysis”
# Assay type: functional
# Details: time 7 day
row,SMILES,Activity
1,C/C(=C\Cc1cccc2c1OC(c1cccs1)CC2=O)C(=O)O (stereo unspecified),648.21 µM
2,C/C(=C\Cc1c(O)ccc2c1OC(c1cccs1)CC2=O)C(=O)O (stereo unspecified),630.52 µM

# System: HK-2
# Test: Cytotoxicity against human HK-2 cells assessed as cell viability at 100 uM incubated for 48 hrs by MTT assay
# Assay type: toxicity, cell-based
# Details: hk-2, 48 h
row,SMILES,Activity
1,C/C(=C\Cc1cccc2c1OC(c1cccs1)CC2=O)C(=O)O (stereo unspecified),Non-Toxic
2,C/C(=C\Cc1c(O)ccc2c1OC(c1cccs1)CC2=O)C(=O)O (stereo unspecified),Non-Toxic

# System: not listed separately
# Test: MRT (0 to infinity) in male Sprague-Dawley rat at 10 mg/kg, po measured after 24 hrs by LC-MS/MS analysis
# Assay type: ADME, organism-based
# Details: in vivo
row,MRT inf,SMILES
1,11.4 h,C/C(=C\Cc1cccc2c1OC(c1cccs1)CC2=O)C(=O)O (stereo unspecified)
2,8.48 h,C/C(=C\Cc1c(O)ccc2c1OC(c1cccs1)CC2=O)C(=O)O (stereo unspecified)

# System: not listed separately
# Test: AUC (0 to infinity) in male Sprague-Dawley rat at 10 mg/kg, po measured after 24 hrs by LC-MS/MS analysis
# Assay type: ADME, organism-based
# Details: in vivo
row,AUC(0-inf),SMILES
1,14.7 µg·h/mL,C/C(=C\Cc1cccc2c1OC(c1cccs1)CC2=O)C(=O)O (stereo unspecified)
2,5.56 µg·h/mL,C/C(=C\Cc1c(O)ccc2c1OC(c1cccs1)CC2=O)C(=O)O (stereo unspecified)

# Molecular target: T1, Solute carrier family 22 member 12 (Homo sapiens, UniProt Q96S37)
# T1 sequence (Q96S37 whole entry): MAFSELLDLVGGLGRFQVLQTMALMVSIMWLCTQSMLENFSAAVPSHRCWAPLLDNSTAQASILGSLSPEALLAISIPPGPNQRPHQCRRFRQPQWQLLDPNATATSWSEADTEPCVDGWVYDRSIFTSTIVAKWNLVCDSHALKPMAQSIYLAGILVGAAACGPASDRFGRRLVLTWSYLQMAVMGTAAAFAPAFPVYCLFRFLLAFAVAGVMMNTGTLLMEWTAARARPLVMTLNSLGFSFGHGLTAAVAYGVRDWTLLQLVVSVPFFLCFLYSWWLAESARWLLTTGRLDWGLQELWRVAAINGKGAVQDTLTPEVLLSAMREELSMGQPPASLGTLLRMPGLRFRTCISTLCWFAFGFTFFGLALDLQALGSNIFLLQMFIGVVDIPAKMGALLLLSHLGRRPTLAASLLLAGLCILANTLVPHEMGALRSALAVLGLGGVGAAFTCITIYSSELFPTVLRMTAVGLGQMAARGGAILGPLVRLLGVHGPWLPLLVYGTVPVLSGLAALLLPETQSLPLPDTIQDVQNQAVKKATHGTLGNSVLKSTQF
# Test: Inhibition of human URAT1 transfected in HEK293 cells by measuring 14C-uric acid uptake preincubated for 30 mins followed by 14--uric acid addition and measured after 15 mins by liquid scintillation counter analysis
# Assay type: cell-based
# Details: not given
row,IC50,SMILES
1,0.86 µM,C/C(=C\Cc1cccc2c1OC(c1cccs1)CC2=O)C(=O)O (stereo unspecified)
2,0.36 µM,C/C(=C\Cc1c(O)ccc2c1OC(c1cccs1)CC2=O)C(=O)O (stereo unspecified)

# System: not listed separately
# Test: Half life in male Sprague-Dawley rat at 10 mg/kg, po measured after 24 hrs by LC-MS/MS analysis
# Assay type: ADME, organism-based
# Details: in vivo
row,half-life,SMILES
1,5.14 h,C/C(=C\Cc1cccc2c1OC(c1cccs1)CC2=O)C(=O)O (stereo unspecified)
2,4.52 h,C/C(=C\Cc1c(O)ccc2c1OC(c1cccs1)CC2=O)C(=O)O (stereo unspecified)

# System: not listed separately
# Test: Tmax in male Sprague-Dawley rat at 10 mg/kg, po measured after 24 hrs by LC-MS/MS analysis
# Assay type: ADME, organism-based
# Details: in vivo
row,Tmax,SMILES
1,0.83 h,C/C(=C\Cc1cccc2c1OC(c1cccs1)CC2=O)C(=O)O (stereo unspecified)
2,1.63 h,C/C(=C\Cc1c(O)ccc2c1OC(c1cccs1)CC2=O)C(=O)O (stereo unspecified)

# System: not listed separately
# Test: Cmax in male Sprague-Dawley rat at 10 mg/kg, po measured after 24 hrs by LC-MS/MS analysis
# Assay type: ADME, organism-based
# Details: in vivo
row,Cmax,SMILES
1,2.09 µg/mL,C/C(=C\Cc1cccc2c1OC(c1cccs1)CC2=O)C(=O)O (stereo unspecified)
2,1.41 µg/mL,C/C(=C\Cc1c(O)ccc2c1OC(c1cccs1)CC2=O)C(=O)O (stereo unspecified)

# System: not listed separately
# Test: as §2, with “reduction in CR level in serum” for “effect on kidney damage”, “administration by biochemical analyzer” for “administration”
# Assay type: organism-based
# Details: in vivo, 168 h, time 7 day
row,SMILES,Activity
1,C/C(=C\Cc1cccc2c1OC(c1cccs1)CC2=O)C(=O)O (stereo unspecified),Non-Toxic
2,C/C(=C\Cc1c(O)ccc2c1OC(c1cccs1)CC2=O)C(=O)O (stereo unspecified),Non-Toxic

# Molecular target: T2, Solute carrier family 2, facilitated glucose transporter member 9 (Homo sapiens) (UniProt Q9NRM0)
# T2 sequence (whole entry): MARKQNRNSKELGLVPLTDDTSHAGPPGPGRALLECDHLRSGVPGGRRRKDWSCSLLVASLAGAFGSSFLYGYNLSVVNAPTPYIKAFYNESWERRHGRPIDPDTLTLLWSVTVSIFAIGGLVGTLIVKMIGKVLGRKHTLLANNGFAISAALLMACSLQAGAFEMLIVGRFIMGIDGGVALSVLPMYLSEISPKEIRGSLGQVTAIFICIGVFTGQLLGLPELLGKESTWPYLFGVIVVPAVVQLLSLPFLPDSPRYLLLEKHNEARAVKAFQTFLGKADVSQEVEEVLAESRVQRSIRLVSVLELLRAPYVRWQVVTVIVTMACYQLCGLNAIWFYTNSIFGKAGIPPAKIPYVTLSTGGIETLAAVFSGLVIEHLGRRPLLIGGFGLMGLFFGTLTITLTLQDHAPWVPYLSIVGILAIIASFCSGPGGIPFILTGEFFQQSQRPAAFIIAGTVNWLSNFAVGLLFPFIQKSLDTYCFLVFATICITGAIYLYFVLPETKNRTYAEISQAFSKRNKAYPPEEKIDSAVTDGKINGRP
# Test: Inhibition of GLUT9 (unknown origin) overexpressed in uric acid-induced HEK293 cells at 25 uM by patch clamp analysis relative to control
# Assay type: cell-based
# Details: not given
row,inhibition,SMILES
1,22.7%,C/C(=C\Cc1cccc2c1OC(c1cccs1)CC2=O)C(=O)O (stereo unspecified)
2,25.5%,C/C(=C\Cc1c(O)ccc2c1OC(c1cccs1)CC2=O)C(=O)O (stereo unspecified)

# System: not listed separately
# Test: as §2, with “reduction in BUN level in serum” for “effect on kidney damage”, “administration by biochemical analyzer” for “administration”
# Assay type: organism-based
# Details: in vivo, 168 h, time 7 day
row,SMILES,Activity
1,C/C(=C\Cc1cccc2c1OC(c1cccs1)CC2=O)C(=O)O (stereo unspecified),Non-Toxic
2,C/C(=C\Cc1c(O)ccc2c1OC(c1cccs1)CC2=O)C(=O)O (stereo unspecified),Non-Toxic

# System: Mus musculus
# Test: as §1, with “glomerular ischemia” for “casts formation”
# Assay type: functional, organism-based
# Details: time 7.0 day
row,SMILES,Activity
1,C/C(=C\Cc1cccc2c1OC(c1cccs1)CC2=O)C(=O)O (stereo unspecified),Active
2,C/C(=C\Cc1c(O)ccc2c1OC(c1cccs1)CC2=O)C(=O)O (stereo unspecified),Active

# Reference: ChEMBL document CHEMBL5614401 (Eur J Med Chem, 2024)
